For one series, the system named is sAPPβ. As to conditions: direct injection into hippocampus; cited from earlier work.
For series [1] the following is noted: cited from earlier work.
In series [2] the test system is human oligodendrocyte/neuron progenitor cells. As to the kind of experiment: Aβ 1-42 induced cell death assay on human oligodendrocyte/neuron progenitors. Format: cell-based. Particulars: 3 μM, 10.5 μM Aβ1-42, 24 hour. On the procedure: Aβ 1-42 induced cell death assay on human oligodendrocyte/neuron progenitors in 96-well plate. Cells were seeded on poly-L-ornithine and laminin coated plates at a density of 8,000 cells per well and maintained in expansion media until Day 3, then media was replaced with fresh spontaneous differentiation media containing testing compounds and IncuCyte Annexin V Red Reagent (1:200 dilution) (Essen BioScience Cat. No. 4641). After the pre-incubation period of 30 minutes at 37° C., 10.5 μM Aβ 1-42 (Bachem Product No. H-8146) was added directly in the pretreatment solution. Neurite length and total Annexin V positive area were analyzed by IncuCyte S3 Live Cell Analysis System every 2 hours.
In addition to promoting neuroregeneration, ROCK inhibitors have been reported to exert neuroprotective effects and prolong neuronal survival. Here we test the neuroprotective effect of ROCK inhibitors against Aβ1-42. Human oligodendrocyte/neuron progenitor cells were pre-incubated with ROCK inhibitors for 30 minutes before exposing to 10.5 μM Aβ1-42. IncuCyte Annexin V Red Reagent was added to culture media to label cell apoptosis. Pictures were taken by IncuCyte S3 and total Annexin V positive area was analyzed by IncuCyte S3 base software. Neurite length was quantified by IncuCyte NeuroTrack Software Module, see FIGS. 3b and 3c.

For series [3] the test system is unchanged. Nature of the series: Chondroitin Sulfate Proteoglycan (CSPG) assay on human oligodendrocyte/neuron progenitors. It counts as cell-based. As to conditions: 1 μM and 3 μM, 72 hour. On the procedure:
Chondroitin Sulfate Proteoglycan (CSPG) assay on human oligodendrocyte/neuron progenitors in 96-well plate. […] Cells were seeded on the coated plates at a density of 6,000 cells per well in expansion media. The following day the expansion media was replaced with fresh spontaneous differentiation media containing testing compounds. Cells were imaged and neurite length was analyzed by IncuCyte S3 Live Cell Analysis System every 4 hours.

The target of series [4] is recombinant ROCK2 (amino acids 1-552) (Homo sapiens (Human), UniProt O75116). Nature of the series: Z'-lyte kinase assay, ROCK2. Format: biochemical. As to conditions: for inhibition at 0.5 µM: read-out: ROCK2 % inh (0.5 μM). In a few lines: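 Inhibition of recombinant human ROCK2 (residues 1-552, sourced from ThermoFisher Scientific) was assessed in vitro with the Z'-lyte kinase kit. Kinase activity with compound was normalized to DMSO control to give percent inhibition. IC50s came from 9-point 2-fold serial dilutions fitted by nonlinear regression in GraphPad Prism.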
Chain of recombinant ROCK2 (amino acids 1-552) (O75116 1-552): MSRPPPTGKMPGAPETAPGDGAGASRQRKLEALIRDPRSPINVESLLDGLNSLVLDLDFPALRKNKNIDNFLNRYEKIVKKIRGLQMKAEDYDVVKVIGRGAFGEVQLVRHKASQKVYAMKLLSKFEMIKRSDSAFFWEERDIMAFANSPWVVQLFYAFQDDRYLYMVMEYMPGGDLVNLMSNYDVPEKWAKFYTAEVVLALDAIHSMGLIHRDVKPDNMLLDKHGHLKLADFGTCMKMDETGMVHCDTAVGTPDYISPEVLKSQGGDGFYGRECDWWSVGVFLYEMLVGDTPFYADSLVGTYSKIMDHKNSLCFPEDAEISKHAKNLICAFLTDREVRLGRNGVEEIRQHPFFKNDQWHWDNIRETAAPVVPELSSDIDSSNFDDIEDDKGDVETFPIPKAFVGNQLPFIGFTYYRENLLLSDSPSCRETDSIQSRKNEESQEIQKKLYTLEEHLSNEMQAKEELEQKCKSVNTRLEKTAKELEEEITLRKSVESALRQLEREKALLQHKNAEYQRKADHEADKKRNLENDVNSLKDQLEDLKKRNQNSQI

For series [5], the system named is ACTA2-promoter-driven-luciferase in NIH3T3 cells. Nature of the series: NIH3T3 Acta2-promoter driven-luciferase assay. It counts as cell-based. Particulars: Mus musculus, plus TGFβ1, 24 hr, read-out: NIH3T3, Acta2-luc, IC50. A digest of the protocol:
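Stable NIH3T3 line carrying luciferase reporter under human ACTA2 promoter (−1000-1 bp); confluent cells given 9-point compound dilutions with TGFβ1 for 24 hr. Lysed cells read for luciferase; IC50 from nonlinear regression fit.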

Series [6] concerns the target recombinant ROCK1 (amino acids 1-535) (Homo sapiens (Human), UniProt Q13464). Nature of the series: Z'-lyte kinase assay, ROCK1. Format: biochemical. As to conditions: for inhibition at 0.5 µM: read-out: ROCK1 % inh (0.5 μM). On the procedure:
Determination of compounds ROCK inhibitory activity in vitro (Z'lyte assay): recombinant ROCK1 (amino acids 1-535) and ROCK2 (amino acids 1-552) proteins were purchased from ThermoFisher Scientific. Compounds activities were measured by Z'-lyte kinase kit (ThermoFisher Scientific) and IC50s were calculated.
Compounds activities were measured by Z'-lyte kinase kit (ThermoFisher Scientific). […] IC50s were calculated using the GraphPad Prism software with kinase activities data that were collected from 9 points serial dilution of compounds treatment. The ROCK inhibition in A7R5 cells and NIH3T3 (Acta2-Luc) cells was performed as described above.
The percent inhibition rate was calculated by normalizing the kinase activity value obtained with compound treatment against DMSO control value and then applied to the equation, […]. IC50's were calculated using the nonlinear regression curve fit function of the GraphPad Prism software with kinase activities data measured with 9 points 2-fold serial dilution of compounds treatment.

Series [7] relates to human oligodendrocyte/neuron progenitor cells. Nature of the series: Neurite outgrowth and differentiation of human oligodendrocyte/neuron progenitors. It counts as cell-based. How it is done:
Thawing and proliferation of human oligodendrocyte/neuron progenitor cells (OPCs). Cryopreserved human oligodendrocyte/neuron progenitors (Millipore Cat. No. CS204496) were recovered and cultured on maltrigel (BD Cat. No. 356324) coated T-25 flask in expansion media containing OPC/neuron basal medium, N21 medium supplement, recombinant human bFGF, PDGF-AA and NT-3. When cells reached 80% confluent, 3 ml of Accutase was applied (Millipore SCR005) to passage cells at 1:4 ratio. Sub-cultured cells were maintained in expansion media for proliferation.
Spontaneous differentiation of human oligodendrocyte/neuron progenitors in 24-well and 96-well plates. Coat plate with 10 μg/ml poly-L-ornithine (Sigma Cat. No. P4957) overnight at room temperature. Remove the poly-L-ornithine solution and rinse the plate with 1×PBS, add 10 μg/ml laminin (Millipore Cat. No. CC095) and incubate at 37° C. for at least 2 hours. Seed cells on the coated plates in expansion media and allowed to attach overnight. The next day expansion media was removed and replaced with freshly prepared spontaneous differentiation media only containing OPC/neuron basal media and N21 media supplement. For 14 day culture, differentiation media was replaced every 3-4 days. Cells were imaged and neurite length was analyzed by IncuCyte S3 Live Cell Analysis System every 4 hours. After 14 days of differentiation, cells were fixed by 4% paraformaldehyde and stained with DAPI and Neuron-specific ß-III tubulin antibody (R&D systems, NL1195R).

Series [8] has as its system ppMlc (T18/S19) levels in A7R5 cells. As to the kind of experiment: A7R5 in-cell ELISA assay (ppMlc). It counts as cell-based, rat. Particulars: Rattus norvegicus, A7R5, A7R5 cells, Table 2; read-out: pMLC IC50 (nM) A7R5. A digest of the protocol: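 Rat aortic smooth muscle A7R5 cells in DMEM with 10% FBS, seeded 24 h, then treated 90 min with 9-point 2-fold compound dilutions. ppMlc (T18/S19) measured by colorimetric in-cell ELISA; cellular IC50 from nonlinear regression curve fit.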
Background: In an ELISA, binding on a coated surface is turned into a signal by an enzyme label.

Chain of recombinant ROCK1 (amino acids 1-535) (Q13464 1-535): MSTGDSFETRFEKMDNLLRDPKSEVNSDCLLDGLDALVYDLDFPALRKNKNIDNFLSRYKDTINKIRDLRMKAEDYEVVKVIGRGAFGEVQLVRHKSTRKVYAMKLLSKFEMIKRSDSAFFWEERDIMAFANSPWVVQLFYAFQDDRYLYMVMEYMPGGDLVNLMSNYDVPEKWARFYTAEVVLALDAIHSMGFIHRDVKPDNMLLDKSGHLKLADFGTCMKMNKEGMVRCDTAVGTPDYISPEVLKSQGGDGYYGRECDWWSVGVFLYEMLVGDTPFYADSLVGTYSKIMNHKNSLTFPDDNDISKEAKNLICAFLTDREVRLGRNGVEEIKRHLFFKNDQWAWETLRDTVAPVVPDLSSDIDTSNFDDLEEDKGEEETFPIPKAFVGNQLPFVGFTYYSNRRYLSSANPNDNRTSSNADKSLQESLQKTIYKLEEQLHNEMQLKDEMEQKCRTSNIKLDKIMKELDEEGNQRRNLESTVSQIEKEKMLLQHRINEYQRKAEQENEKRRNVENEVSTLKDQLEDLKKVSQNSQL

With `CN(C)CCOc1cc(-c2cn[nH]c2)ccc1NC(=O)C1COc2ccccc2O1` (stereo not shown) [SR3677], in the series on sAPPβ, the sAPPβ result is reported as “lowering sAPPβ”. Further, the brain penetration entry in series [1] (in vivo) is listed as “lack of brain penetration”. The half-life in [1] (oral PK) was less than 1 h. For the same compound, in [1] (oral), the “oral bioavailability (F)” value is 5%.
As for `CNC(C(=O)Nc1ccc(-c2cn[nH]c2)cc1)c1ccc(Cl)cc1` (stereo not shown) [Example 17, N-(4-(1H-pyrazol-4-yl)phenyl)-2-(4-chlorophenyl)-2-(methylamino)acetamide], the “Aβ1-42 induced cell death (Annexin V area)” value in series [2] is listed as “significantly protect”. Besides, the “neurite outgrowth in the presence of Aβ1-42” value in [2] was “promoted neurite outgrowth”. Also, the “CSPG mediated neurite outgrowth arrest” value in [3] is reported as “significantly counteract”. In addition, the figures for the IC50 in [4], in series [5] and in series [8] were 6.3 nM, 108 nM and 60 nM, respectively. The results for the inhibition at 0.5 µM in series [4] and in series [6] were 98% and 99%, respectively. Also, the “neuronal differentiation and maturation” value in series [7] (14 days culture, Beta III tubulin) was “facility neuronal differentiation and maturation”. The neurite length result in series [7] (various concentrations, 3 days culture) is “significantly increase neurite length”.
Consider `CNC(C(=O)Nc1ccc(-c2cn[nH]c2)cc1)c1cccc(F)c1` (stereo not shown) [Example 18, N-(4-(1H-pyrazol-4-yl)phenyl)-2-(3-fluorophenyl)-2-(methylamino)acetamide], for which the IC50 in [4] worked out at 10 nM; in series [5], 464 nM; in series [8] it was 504 nM. Also, the inhibition at 0.5 µM turned out to be 89% in [4] and 92% in series [6].
On the same counts, the results for `CNC(C(=O)Nc1ccc(-c2cn[nH]c2)cc1)c1ccc(F)cc1` (stereo not shown) [Example 19, N-(4-(1H-pyrazol-4-yl)phenyl)-2-(4-fluorophenyl)-2-(methylamino)acetamide] are 4.8 nM, 190 nM, 355 nM, 90% and 96%.
As to `CNC(C(=O)Nc1cc(OC)c(-c2cn[nH]c2)cc1F)c1cccc(OC)c1` (stereo not shown) [Example 66, N-(2-fluoro-5-methoxy-4-(1H-pyrazol-4-yl)phenyl)-2-(3-methoxyphenyl)-2-(methylamino)acetamide], the IC50 is 18 nM in series [4], 396 nM in series [5], 56 nM in series [6] and 332 nM in series [8].

Broadly, the half-life is the time in which the quantity being followed falls by half. In general, IC50 refers to the concentration at which inhibition is half-maximal.

These data come from US11479533B2, “Inhibitors of Rho associated coiled-coil containing protein kinase” (KADMON CORPORATION, LLC, priority 2017, dated 2022).
